Experimental findings from patent US20210323914A1, “IONIZABLE CATIONIC LIPID FOR RNA DELIVERY” (Arcturus Therapeutics, Inc., priority 2017, published 2021) are described below.

By pKa is commonly meant the negative logarithm of the acid dissociation constant. Lower therefore signals a group that gives up its proton readily.

Data set [1] has as its system Factor VII. Nature of the data set: In vivo mouse Factor VII siRNA knockdown with lipid nanoparticles. The conditions noted are these: intravenous, mice, 48 hours; for Bioactivity: percentage in vivo Factor VII knockdown: dose 0.03 mg/kg. Further details: species or system C57BL/6 mice. The text has this:
The first pair of numbers denotes the number of carbons in the ester, including the carbonyl, for L1 and L2; the pair of numbers in the parenthesis denotes the number of carbons in each branch of the branched alkyl, R1 or if R2 is also branched, R1/R2 (an asterisk denotes a double bond); the number of carbons in R3 is given; and the last line denotes the substitution for R4 and R5. The ATX number is given for reference herein. Calculated Log D values (c-Log D) and calculated pKa (c-pKa) values are given, as well as measured pKa in parenthesis (measured in the Formulation milieu). The c-Log D and c-pKa values are generated by ACD Labs Structure Designer v12.0. Bioactivity is percentage in vivo Factor VII knockdown at a dose of 0.03 mg/kg, unless otherwise designated.
Using a liver-directed in vivo screen of the liposome libraries, a series of compounds were tested that facilitate high levels of siRNA mediated gene silencing in hepatocytes, the cells comprising the liver parenchyma. Factor VII, a blood-clotting factor, is a suitable target gene for assaying functional siRNA delivery to liver. Because this factor is produced specifically in hepatocytes, gene silencing indicates successful delivery to parenchyma, as opposed to delivery to the cells of the reticulo-endothelial system (e.g., Kupffer cells). Furthermore, Factor VII is a secreted protein that can be readily measured in serum, obviating the need to euthanize animals. Silencing at the mRNA level can be readily determined by measuring levels of protein. This is because the protein's short half-life (2-5 hour). Compositions with siRNA directed to […] were Formulated with the lipid, and comparator sample phosphate-buffered saline (PBS). Female C57BL/6 mice (6-8 week old) were used for FVII siRNA knockdown (KD) experiments.
All Formulations were administered intravenously via tail vein injection at a dose of 0.03 and 0.1 mg/kg at a dosing volume of […]. Terminal blood collection was performed via cardiac puncture under 2% isoflurane at 48 hours after Formulation injections. Blood was collected into 0.109 M citrate buffer tube and processed by centrifugation at 1200 G for 10 min. Plasma was collected and Factor VII protein levels were analyzed by chromogenic assay (Biophen FVII, Aniara Corporation). A standard curve was constructed using samples from PBS-injected mice and relative Factor VII expression was determined by comparing treated groups to untreated PBS control.

The test system of data set [2] is mouse epo mRNA. Nature of the data set: In vivo EPO mRNA stability after injection of lipid encapsulated mouse epo mRNA. Further details: species or system Balb/c mice. The conditions noted are these: 0.03 and 0.1 mg/kg intravenous, 6 hours after injection, mice. The method, then:
Levels of mRNA in plasma were measured and compared following injection of nanoparticles comprising different cationic lipids. Female Balb/c mice (6-8 week old) were used for evaluation of plasma erythropoietin (epo) levels in vivo following injection of lipid encapsulated mouse epo mRNA. All Formulations were administered intravenously via tail vein injection at a dose of 0.03 and 0.1 mg/kg at a dosing volume of 5 ml/kg. Terminal blood collection was performed via cardiac puncture under 2% isoflurane at 6 hours after Formulation injections. Blood was collected into 0.109 M citrate buffer tube and processed by centrifugation at 5000 rpm for 10 minutes. Serum was collected and epo mRNA levels were analyzed. Results are shown at FIG. 17.

The nature of data set [3]: Measured pKa of cationic lipids in LNP or micellar formulations by TNS fluorescence. In kind it is physicochemical. The conditions noted are these: for pKa: measured in the Formulation milieu, TNS fluorescence, 1 mM total lipids; for Δ measured pKa vs ATX-0002: change on shortening the ester. The method, then: pKa of cationic lipids in LNP or micellar Formulations were measured by the procedure of Jayaraman, 2012, Angew. Chem. Int. Ed., 51:8529-33, hereby incorporated by reference. Lipid micelles or LNPs are diluted to 1 mM total lipids in universal buffer with a pH range between 3 and 12 in presence of 0.06 mg/mL 6-(p-toluidino)-2-naphthalenesulfonic acid sodium salt (TNS) reagent (Sigma Aldrich), a pH sensitive fluorescence probe. The anionic TNS molecule fluoresces when associated with the surface of positively charged membranes but is not fluorescent when free in solution, allowing measurement of pKa. The TNS signal is measured on a spectral plate reader. The TNS signal is plotted as function of the pH and analyzed using a non-linear (Boltzman) to determine the pKa.
Reagents used in the assay include • Hepes free acid, CAS: 7365-45-9 (VWR, 0511-1KG or equivalent) • MES, HPLC grade: (Sigma 105228-100G or equivalent) • Ammonium acetate, HPLC grade: (Sigma 90335-100 mL or equivalent) • Sodium chloride, HPLC grade (VWR EM-MX0475-1 or equivalent) • TNS (Sigma-Aldrich T9792-250 mg or equivalent) • Hydrochloric acid • DMSO • DPBS without calcium and magnesium (GE, SH30028.02 or equivalent) • H2O, HPLC grade (OmniSolv, WX0004-1 or equivalent)
To prepare a stock solution of Universal Buffer (UB) in a polystyrene sterile storage bottle, prepare 1 L using the following table.
Reagents are sterile filtered through a 0.2 μm filter. Preparation of UB solution includes adding 5 mL of 1 M HCl to a 350 mL stock solution.
To prepare a pH ladder, centrifuge tubes (50 mL) with 20 mL UB buffer are used. (pH ˜3) and differing amounts of 2 N NaOH. Stock solutions of TNS at 1 mg/mL in DMSO. 60 μL of TNS at 1 mg/mL is added to 940 μL water to reach a working solution concentration of 0.06 mg/mL. Five test samples, 1 mL of LNP sample in PBS at 1 mM total lipid, and 1 reference sample are analyzed per plate. Samples at different pH values are prepared in wells in which 25 μL of 0.06 mg/mL TNS is added. 15 μL of test samples is added per well. The microplate is incubated for 15 minutes at room temperature in the dark. TNS template can be used to format data from the plate reader. Perform non-linear (Boltzman) regression analysis of the samples in Origin Pro 8 or equivalent software.

Data set [4] relates to epo protein. Nature of the data set: In vivo epo protein expression after delivery of lipid encapsulated mouse epo mRNA (epo ELISA). Further details: species or system Balb/c mice. As to conditions: at 0.1 mg/kg, intravenous, 6 hours, mice. The method, then: Epo expression following delivery of mRNA using lipid nanoparticles comprising the lipids described herein was measured.
Female Balb/c mice (6-8 weeks old) were used for evaluation of epo protein expression in vivo following delivery of lipid encapsulated mouse epo mRNA. All formulations were administered intravenously via tail vein injection at a dose of 0.03 and 0.1 mg/kg at a dosing volume of 5 mL/kg. Terminal blood collection was performed via cardiac puncture under 2% isoflurane at 6 hours after Formulation injections. Blood was collected into 0.109 M citrate buffer tube and processed by centrifugation at 5000 rpm for 10 minutes. Serum was collected and epo protein levels were analyzed by epo ELISA assay (R&D systems). A standard curve was constructed using samples from PBS-injected mice and relative […] expression was determined by comparing treated groups to untreated PBS control.

Take `CCCCCC/C=C\COC(=O)CCCN(CCCC(=O)OC(CCCCCC)CCCCCC)C(=O)SCCN(C)C` [ATX-0086]: the “Bioactivity: percentage in vivo Factor VII knockdown” value (shortened to “Bioactivity: percentage”) in data set [1] is 13 percentage. In data set [2], the “epo mRNA levels in serum compared with ATX-0002 (FIG. 17)” value is “substantial improvement over ATX-0002”. Further, in data set [3], the pKa came to 6.05.

Consider `CCCCCC/C=C\COC(=O)CCCN(CCCC(=O)OC(CCCCCCC)CCCCCCC)C(=O)SCCN(C)C` [ATX-0081], for which the “Bioactivity: percentage” value in data set [1] is given as 93 percentage. In addition, the “epo mRNA levels in serum compared with ATX-0002 (FIG. 17)” value in data set [2] was “substantial improvement over ATX-0002”. Moreover, the pKa in data set [3] was 6.04.

`CCCCCC/C=C\COC(=O)CCCCCN(CCC(=O)OC(CCCCCCC)CCCCCCC)C(=O)SCCN(C)C` [ATX-0082]: the “epo mRNA levels in serum compared with ATX-0002 (FIG. 17)” value in data set [2] is given as “substantial improvement over ATX-0002”.

With `CCCCCC/C=C\COC(=O)CCCCCN(CCCCCC(=O)OC(CCCCCCC)CCCCCCC)C(=O)SCCN(C)C`, the “Bioactivity: percentage” value in data set [1] is 91 percentage. The pKa in data set [3] came out at 5.93.

In the case of `CCCCCC/C=C\COC(=O)CCCCCN(CCCC(=O)OC(CCCCCCCC)CCCCCCCC)C(=O)SCCN(C)C`, the “Bioactivity: percentage” value in data set [1] was found to be 81 percentage. For the same compound, the pKa in data set [3] stood at 5.38.

Consider `CCCCCC/C=C\COC(=O)CCCCCN(CCCCCC(=O)OC(CCCCCC)CCCCCC)C(=O)SCCN(C)C` [ATX-0084], for which the “Bioactivity: percentage” value in data set [1] came out at 68 percentage. In data set [2], the “epo mRNA levels in serum compared with ATX-0002 (FIG. 17)” value was “substantial improvement over ATX-0002”. Further, in data set [3], the pKa stood at 6.11.

Regarding `CCCCCC/C=C\COC(=O)CN(CC(=O)OC(CCCCCCCC)CCCCCCCC)C(=O)SCCCN(C)C`, in data set [1], the “Bioactivity: percentage” value is given as 97 percentage. This compound showed a pKa in data set [3] of 6.38.

Turning to `CCCCCC/C=C\COC(=O)CCCN(CCCC(=O)OC(CCCCCCC)CCCCCCCC)C(=O)SCCN(C)C` (stereo not drawn) [ATX-0057], the “Factor VII knockdown activity compared with ATX-002 (FIG. 18)” value in data set [1] (both at 0.03 and 0.1 mg/kg) is given as “substantially more effective than ATX-002”. Moreover, the “Bioactivity: percentage” value in data set [1] was 86 percentage. Also, the “epo expression compared with ATX-002 (FIG. 19)” value in data set [4] is “substantially higher amounts”. In data set [2], the “epo mRNA levels in serum compared with ATX-0002 (FIG. 17)” value is recorded as “substantial improvement over ATX-0002”. In data set [3], the “Δ measured pKa vs ATX-0002” value is “no impact” and the pKa worked out at 5.7.

`CCCCCCCC(CCCCCCC)OC(=O)CCCN(CCCC(=O)OC(CCCCCCC)CCCCCCC)C(=O)SCCCN(C)C`: in data set [1], the “Bioactivity: percentage” value is given as 99 percentage. The pKa in data set [3] came to 6.38.

For `CCCCCC/C=C\COC(=O)CN(CC(=O)OC(CCCCCCCC)CCCCCCCC)C(=O)SCCCN(CC)CC`, the “Bioactivity: percentage” value in data set [1] was 82 percentage. This compound also yielded a pKa in data set [3] of 6.2.

Consider `CCCCCC/C=C\COC(=O)CN(CC(=O)OC(CCCCCCC)CCCCCCCC)C(=O)SCCN(C)C` (stereo not drawn) [ATX-0064], for which the “Bioactivity: percentage” value in data set [1] was 0 percentage. In addition, in data set [3], the “Δ measured pKa vs ATX-0002” value is reported as −0.90 and the pKa amounted to 5.14.

In the case of `CCCCCC/C=C\COC(=O)CCCN(CCCC(=O)OC(CCCCCCCC)CCCCCCCC)C(=O)SCCN(C)C` [ATX-0087], the “epo mRNA levels in serum compared with ATX-0002 (FIG. 17)” value in data set [2] is listed as “substantial improvement over ATX-0002”.

As to `CCCCCC/C=C\COC(=O)CCCN(CCCC(=O)OC(CCCCCCCC)CCCCCCCC)C(=O)SCCCN(CC)CC`, in data set [1], the “Bioactivity: percentage” value is 75 percentage. Also, the pKa in data set [3] came to 6.58.

As for `CCCCCC/C=C\COC(=O)CCCCCN(CCCC(=O)OC(CCCCCCC)CCCCCCC)C(=O)SCCN(C)C` [ATX-0083], the “Bioactivity: percentage” value in data set [1] is 65 percentage. For the same compound, the “epo mRNA levels in serum compared with ATX-0002 (FIG. 17)” value in data set [2] is given as “substantial improvement over ATX-0002”. In data set [3], this compound showed a pKa of 5.98.

As to `CCCCCC/C=C\COC(=O)CCCCCN(CCC(=O)OC(CCCCCCC)CCCCCCC)C(=O)SCCN(C)C` [drawing 82], the “Bioactivity: percentage” value in data set [1] stood at 43 percentage. In data set [3], this compound registered a pKa of 5.77.

As for `CCCCCCCC(CCCCCCC)OC(=O)CN(CC(=O)OC(CCCCCCC)CCCCCCC)C(=O)SCCCN(C)C`, the “Bioactivity: percentage” value in data set [1] was 25 percentage. In addition, the pKa in data set [3] worked out at 5.68.

Turning to `CCCCCCCC(CCCCCCC)OC(=O)CN(CC(=O)OC(CCCCCCC)CCCCCCC)C(=O)SCCCN(CC)CC` [ATX-0134], the “Bioactivity: percentage” value in data set [1] was determined as 25 percentage. In data set [3], the pKa was 5.62.

Consider `CCCCCC/C=C\COC(=O)CN(CC(=O)OC(CCCCC)CCCCC)C(=O)SCCN(C)C` [ATX-0063], for which the “Bioactivity: percentage” value in data set [1] is recorded as 0 percentage. In data set [3], the “Δ measured pKa vs ATX-0002” value was −0.7 and the pKa came to 5.39.

In the case of `CCCCCC/C=C\COC(=O)CCCCCCCN(CCCCCCCC(=O)OC(CCCCC)CCCCC)C(=O)SCCN(C)C`, in data set [1], the “Bioactivity: percentage” value was 68 percentage. Moreover, in data set [3], the pKa amounted to 5.81.

In the case of `CCCCCC/C=C\COC(=O)CCCCCN(CCCCCC(=O)OC(CCCCCCCC)CCCCCCCC)C(=O)SCCN(C)C`, the “Bioactivity: percentage” value in data set [1] turned out to be 85 percentage. In data set [3], this compound gave a pKa of 5.82.
